# Laboratory results published in ChEMBL document CHEMBL1201862, “PubChem BioAssay data set” (2004).
# Calls of active or inactive are those of the source.
# Experiments:
# [1] = Fluorescence polarization-based biochemical high throughput dose response assay for activators of the Protein Kinase A-R2B (PKA-R2B) complex. [Related pubchem assays (depositor defined):AID504700, AID504704, AID504796, AID504797]
# [2] = Fluorescence polarization-based biochemical high throughput dose response assay for activators of the Protein Kinase A-R1A (PKA-R1A) complex. [Related pubchem assays (depositor defined):AID504704, AID504707, AID504799, AID504800]
# [3] = alpha-synuclein stem-loop translation blockers – luminescence, H4 neuroglioblastoma cells, dose confirmation, confirmation (AID 2454); type: functional, cell-based;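 note: H4 neuroglioblastoma cells carrying an alpha-synuclein 5'UTR luciferase reporter; potency for inhibition of the luciferase signal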
# [4] = luciferase reporter signal reduction – luminescence, H4-C neuroglioblastoma cells, dose response (AID 2458); type: functional, cell-based;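 note: H4 neuroglioblastoma cells stably carrying a luciferase reporter gene fusion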
# [5] = loss of viability in HepG2 cells – cell-based, CellTiter-Glo, cherry-picked, cytotoxicity control for Shn3 inhibitor project, dose response (AID 624134); type: functional
# [6] = reduction of Shn3 3'UTR-driven luciferase in osteoblasts – cell-based, Clone20 osteoblasts, firefly luciferase, cherry-picked, dose response (AID 624132); type: functional;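 note: firefly luciferase luminescence from reporter carrying the Shn3 3'UTR in osteoblasts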
# [7] = non-specific 3'UTR reporter inhibition in Clone20-Shn3RL – cell-based, Renilla luciferase, cherry-picked, counter-screen for Shn3 inhibitor project, dose response (AID 624133); type: functional
# [8] = Luminescence Cell-Based Dose Response HTS to Identify Inhibitors of 5'UTR Stem-Loop Driven Prion Protein mRNA Translation in H4 Neuroglioblastoma Cells. [Related pubchem assays: 1827 (Project Summary), 1813 (Primary HTS)]; type: functional
# [9] = alpha-synuclein stem-loop luciferase translation blockers – H4 neuroglioma cells, luminescence, confirmation (AID 1988); type: functional, cell-based
# [10] = molecular target: T1, Heat shock factor protein 1 (Mus musculus, UniProt P38532); assay: decrease of HSF1-responsive luciferase luminescence – cell-based, NIH3T3, dose retest, confirmation (AID 2382); type: functional;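 note: NIH3T3 fibroblasts with HSF1-driven luciferase reporter stressed by proteasome inhibitor MG132; luminescence from HSF1-driven luciferase expression after 8 hours of MG132 stress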
# T1 sequence (P38532 whole entry): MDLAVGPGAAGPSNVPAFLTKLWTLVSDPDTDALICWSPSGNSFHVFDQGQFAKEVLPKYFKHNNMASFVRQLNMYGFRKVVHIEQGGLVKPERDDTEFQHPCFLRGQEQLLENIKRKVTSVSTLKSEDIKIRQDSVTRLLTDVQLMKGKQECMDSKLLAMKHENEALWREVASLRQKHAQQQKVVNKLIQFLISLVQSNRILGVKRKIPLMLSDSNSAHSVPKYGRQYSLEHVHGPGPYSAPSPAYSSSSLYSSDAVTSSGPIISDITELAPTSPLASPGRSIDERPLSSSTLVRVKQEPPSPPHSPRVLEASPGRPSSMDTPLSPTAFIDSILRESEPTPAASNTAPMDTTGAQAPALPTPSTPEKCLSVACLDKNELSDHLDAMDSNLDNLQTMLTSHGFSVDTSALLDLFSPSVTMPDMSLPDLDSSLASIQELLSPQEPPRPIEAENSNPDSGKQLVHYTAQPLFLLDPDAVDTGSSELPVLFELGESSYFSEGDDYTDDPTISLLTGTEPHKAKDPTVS
# [11] = molecular target: Luciferin 4-monooxygenase (Photuris pensylvanica, UniProt Q27757); assay: inhibition of Cell Titer Glo luciferase signal – biochemical, luminescence, cherry-picks, counter-screen for HSF-1 reporter inhibitor project, dose response (AID 588847)
# [12] = cells; type: functional, cell-based
# [13] = luciferase reporter signal suppression in cells – H4 neuroglioma cells, luminescence, dose response (AID 1990); type: functional, cell-based
# [14] = molecular target: DNA topoisomerase (Yersinia pestis, UniProt A0A2S9PM60); assay: Yersinia topoisomerase I cleavage product accumulation – biochemical, cherry-pick, dose response (AID 588525)
# [15] = molecular target: Beta-galactosidase (Escherichia coli, UniProt Q8VNN2); assay: PubChem AID 485352; type: functional
# [16] = molecular target: T2, Type-1 angiotensin II receptor (Homo sapiens, UniProt P30556); assay: antagonism of angiotensin II type 1 receptor – cell-based, uHTS hits, selectivity assay for APJ receptor antagonist project, dose response (AID 463214); type: functional;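 note: antagonist potency against angiotensin II stimulated AT1 response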
# T2 sequence (P30556 whole entry): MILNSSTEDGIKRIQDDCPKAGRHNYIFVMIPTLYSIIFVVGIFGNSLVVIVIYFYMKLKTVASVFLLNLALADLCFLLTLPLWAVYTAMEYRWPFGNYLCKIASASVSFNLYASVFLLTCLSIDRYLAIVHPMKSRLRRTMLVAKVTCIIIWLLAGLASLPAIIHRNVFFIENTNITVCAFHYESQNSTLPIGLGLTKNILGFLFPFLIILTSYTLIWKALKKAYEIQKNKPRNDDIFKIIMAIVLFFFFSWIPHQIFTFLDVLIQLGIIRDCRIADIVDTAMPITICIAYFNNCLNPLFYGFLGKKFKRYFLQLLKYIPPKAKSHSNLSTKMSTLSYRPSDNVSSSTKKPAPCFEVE
# [17] = molecular target: Beta-arrestin-1 (Homo sapiens, UniProt P49407); assay: beta-arrestin/AP2 interaction blockers, potency – biochemical, cherry pick 1, beta2-adaptin appendage, flow cytometry, dose response (AID 588783); type: functional
# [18] = molecular target: T3, Streptokinase A (Streptococcus pyogenes serotype M1, UniProt P10520); assay: viability-normalized secreted streptokinase activity reduction – plasminogen activation absorbance, OD405, dose response (AID 1914); type: functional, Streptococcus pyogenes M1 GAS;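 note: secreted streptokinase activity via plasminogen activation per viability signal from cell pellet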
# T3 sequence (P10520 whole entry): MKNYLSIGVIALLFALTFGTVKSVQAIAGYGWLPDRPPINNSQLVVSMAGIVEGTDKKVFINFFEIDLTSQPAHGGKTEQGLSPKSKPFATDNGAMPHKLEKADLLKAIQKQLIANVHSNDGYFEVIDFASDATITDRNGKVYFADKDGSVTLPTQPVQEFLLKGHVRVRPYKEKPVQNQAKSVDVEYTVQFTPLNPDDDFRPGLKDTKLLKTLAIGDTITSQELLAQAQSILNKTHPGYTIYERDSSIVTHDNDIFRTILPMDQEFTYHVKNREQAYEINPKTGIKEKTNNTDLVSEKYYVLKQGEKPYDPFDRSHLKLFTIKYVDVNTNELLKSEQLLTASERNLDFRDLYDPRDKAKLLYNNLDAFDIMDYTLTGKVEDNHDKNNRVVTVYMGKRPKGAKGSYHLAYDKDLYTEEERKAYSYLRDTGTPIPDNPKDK
# [19] = system: Streptococcus; assay: GAS UMAA2166 growth inhibition – luminescence, BacTiterGlo, counter-screen for streptokinase expression inhibitor project, dose response (AID 1915); type: functional, organism-based;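 note: potency for reduction of bacterial viability or growth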
# [20] = system: Streptococcus sp. 'group A'; assay: Streptococcus pyogenes SK(-)GAS viability under kanamycin – luminescence, BacTiterGlo, confirmation, counter-screen for streptokinase expression inhibitor project, dose response (AID 1900); type: functional, organism-based
# [21] = molecular target: Glycogen synthase kinase-3 alpha (Homo sapiens, UniProt P49840); assay: Inhibition of Human GSK-3 alpha Activity Measured in Biochemical System Using Microfluidics - 2063-06_Inhibitor_Dose_DryPowder_Activity. [Related pubchem assays (depositor defined):AID2709]
# [22] = molecular target: Glycogen synthase kinase-3 beta (Homo sapiens, UniProt P49841); assay: Inhibition of Human GSK-3 beta Activity Measured in Biochemical System Using Microfluidics - 2063-05_Inhibitor_Dose_DryPowder_Activity. [Related pubchem assays (depositor defined):AID2709]
# [23] = blockade of melanocortin 4 receptor signaling – cell-based, plate reader, cherry pick, counter-screen for LGR2 antagonist project, dose response (AID 743444); type: functional;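 note: transfected HEK 293 cells stimulated with alpha-MSH peptide; potency of inhibitors of the alpha-MSH evoked signal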
# [24] = toxicity toward HepG2 liver cells – cell-based, plate reader, cherry-pick, antagonist series, cytotoxicity control, dose response (AID 743416); type: functional
# [25] = molecular target: T4, Nuclear receptor subfamily 0 group B member 1 (Homo sapiens, UniProt P51843); assay: Luminescence-based cell-based high throughput dose response assay for inhibitors of the orphan nuclear receptor subfamily 0, group B, member 1 (DAX1; NR0B1). [Related pubchem assays (depositor defined):AID504766, AID504790]; type: functional
# T4 sequence (P51843 whole entry): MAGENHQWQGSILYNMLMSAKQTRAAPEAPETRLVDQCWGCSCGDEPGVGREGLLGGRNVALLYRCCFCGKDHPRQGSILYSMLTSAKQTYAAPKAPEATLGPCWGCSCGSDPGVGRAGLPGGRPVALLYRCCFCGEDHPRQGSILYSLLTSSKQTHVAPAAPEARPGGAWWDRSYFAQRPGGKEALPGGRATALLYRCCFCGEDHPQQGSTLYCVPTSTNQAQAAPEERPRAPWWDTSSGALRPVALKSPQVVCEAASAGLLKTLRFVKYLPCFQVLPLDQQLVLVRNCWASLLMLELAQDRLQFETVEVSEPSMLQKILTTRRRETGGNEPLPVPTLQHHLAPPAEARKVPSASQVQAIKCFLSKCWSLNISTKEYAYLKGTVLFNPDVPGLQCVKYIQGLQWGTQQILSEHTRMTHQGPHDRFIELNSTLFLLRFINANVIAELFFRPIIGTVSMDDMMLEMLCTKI
# [26] = system: HEK293; assay: cells; type: functional, cell-based; conditions: Homo sapiens
# [27] = blockers of bursicon-stimulated LGR2 cAMP reporter – cell-based, HEK293, CRE-luciferase reporter, cherry pick, set 2, dose response (AID 743343); type: functional;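 note: transfected cells were stimulated with diluted bursicon conditioned medium after compound addition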
# [28] = molecular target: Beta-2 adrenergic receptor (Homo sapiens, UniProt P07550); assay: ADRB2 activation measured by internalization – cell-based, FAP fluorogen, flow cytometry, cherry pick 1, dose response (AID 588763); type: functional
# [29] = molecular target: Voltage-gated inwardly rectifying potassium channel KCNH2 (Homo sapiens, UniProt Q12809); conditions: Potency;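 note: confirmatory quantitative high-throughput screen measuring inhibition of hERG channel activity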
# [30] = molecular target: Beta-adrenergic receptor kinase 1 (Homo sapiens, UniProt P25098); assay: aptamer displacement from bead-bound GRK2 – biochemical, cherry pick 1, bead flow cytometry, dose response (AID 504500)
# Sequence of Beta-adrenergic receptor kinase 1 (P25098 whole entry): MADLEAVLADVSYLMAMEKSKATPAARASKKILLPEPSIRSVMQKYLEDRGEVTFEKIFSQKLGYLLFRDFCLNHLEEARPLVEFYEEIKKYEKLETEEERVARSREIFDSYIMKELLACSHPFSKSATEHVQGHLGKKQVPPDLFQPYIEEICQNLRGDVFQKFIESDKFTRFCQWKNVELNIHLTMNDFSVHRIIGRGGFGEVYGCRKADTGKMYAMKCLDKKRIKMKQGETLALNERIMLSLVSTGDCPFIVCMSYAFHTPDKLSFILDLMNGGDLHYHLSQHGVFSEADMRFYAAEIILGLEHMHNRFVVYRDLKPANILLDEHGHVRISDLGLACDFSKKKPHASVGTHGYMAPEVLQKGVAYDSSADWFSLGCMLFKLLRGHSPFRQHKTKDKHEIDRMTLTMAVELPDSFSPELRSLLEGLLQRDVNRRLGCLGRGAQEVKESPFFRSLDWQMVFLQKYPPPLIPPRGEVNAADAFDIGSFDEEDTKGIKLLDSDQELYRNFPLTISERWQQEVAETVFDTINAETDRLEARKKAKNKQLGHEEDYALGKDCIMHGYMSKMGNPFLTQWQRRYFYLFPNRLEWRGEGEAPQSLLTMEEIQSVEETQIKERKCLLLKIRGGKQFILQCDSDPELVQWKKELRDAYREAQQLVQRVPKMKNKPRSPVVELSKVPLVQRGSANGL
# Sequence of Glycogen synthase kinase-3 beta (P49841 whole entry): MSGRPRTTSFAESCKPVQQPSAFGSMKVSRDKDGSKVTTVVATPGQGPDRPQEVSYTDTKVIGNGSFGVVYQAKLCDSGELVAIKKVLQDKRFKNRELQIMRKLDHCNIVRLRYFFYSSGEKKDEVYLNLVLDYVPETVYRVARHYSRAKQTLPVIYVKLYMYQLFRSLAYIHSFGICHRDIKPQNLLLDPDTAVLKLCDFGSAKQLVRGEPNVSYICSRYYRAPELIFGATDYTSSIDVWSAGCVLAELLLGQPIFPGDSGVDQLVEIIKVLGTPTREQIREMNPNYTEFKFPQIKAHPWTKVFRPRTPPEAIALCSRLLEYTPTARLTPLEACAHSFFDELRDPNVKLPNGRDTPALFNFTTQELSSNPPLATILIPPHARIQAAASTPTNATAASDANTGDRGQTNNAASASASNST
# Sequence of Luciferin 4-monooxygenase (Q27757 whole entry): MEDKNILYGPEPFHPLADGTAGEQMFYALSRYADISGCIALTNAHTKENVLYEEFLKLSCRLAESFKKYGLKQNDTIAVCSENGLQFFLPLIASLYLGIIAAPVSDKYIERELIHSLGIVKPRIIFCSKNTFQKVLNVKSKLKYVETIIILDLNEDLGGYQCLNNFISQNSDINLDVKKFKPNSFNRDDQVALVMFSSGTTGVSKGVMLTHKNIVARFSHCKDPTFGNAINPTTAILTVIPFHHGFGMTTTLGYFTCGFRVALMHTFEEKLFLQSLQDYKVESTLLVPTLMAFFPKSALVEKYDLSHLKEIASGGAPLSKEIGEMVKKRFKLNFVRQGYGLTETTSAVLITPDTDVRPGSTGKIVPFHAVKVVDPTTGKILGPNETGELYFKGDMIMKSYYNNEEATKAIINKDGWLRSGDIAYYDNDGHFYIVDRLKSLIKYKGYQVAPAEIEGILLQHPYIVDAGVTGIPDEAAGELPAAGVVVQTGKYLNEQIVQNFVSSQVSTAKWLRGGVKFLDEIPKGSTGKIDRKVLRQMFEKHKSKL
# Sequence of DNA topoisomerase (A0A2S9PM60 whole entry): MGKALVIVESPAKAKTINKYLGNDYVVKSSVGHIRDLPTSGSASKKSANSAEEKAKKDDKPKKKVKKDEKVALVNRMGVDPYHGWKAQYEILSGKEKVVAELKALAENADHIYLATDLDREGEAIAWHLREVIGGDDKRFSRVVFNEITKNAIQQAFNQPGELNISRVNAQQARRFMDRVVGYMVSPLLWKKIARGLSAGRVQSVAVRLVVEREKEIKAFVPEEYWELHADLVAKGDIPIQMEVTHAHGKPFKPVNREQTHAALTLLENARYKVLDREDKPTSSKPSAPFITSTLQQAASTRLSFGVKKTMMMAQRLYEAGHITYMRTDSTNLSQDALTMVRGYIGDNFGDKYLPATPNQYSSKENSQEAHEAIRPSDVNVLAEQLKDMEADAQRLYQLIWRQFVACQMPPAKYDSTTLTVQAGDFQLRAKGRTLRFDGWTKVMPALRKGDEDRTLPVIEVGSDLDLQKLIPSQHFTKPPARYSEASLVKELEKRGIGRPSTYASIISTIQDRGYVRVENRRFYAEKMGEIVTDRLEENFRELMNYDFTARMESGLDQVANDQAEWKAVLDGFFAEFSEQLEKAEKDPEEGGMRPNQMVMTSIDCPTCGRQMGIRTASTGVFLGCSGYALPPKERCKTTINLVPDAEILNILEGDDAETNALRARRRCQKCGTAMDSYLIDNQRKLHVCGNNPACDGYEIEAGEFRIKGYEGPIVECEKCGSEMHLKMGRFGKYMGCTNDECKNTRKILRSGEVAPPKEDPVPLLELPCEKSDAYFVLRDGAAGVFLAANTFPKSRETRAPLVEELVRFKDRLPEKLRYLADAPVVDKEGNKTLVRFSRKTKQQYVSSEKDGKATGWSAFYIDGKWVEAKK
# Sequence of Voltage-gated inwardly rectifying potassium channel KCNH2 (Q12809 whole entry): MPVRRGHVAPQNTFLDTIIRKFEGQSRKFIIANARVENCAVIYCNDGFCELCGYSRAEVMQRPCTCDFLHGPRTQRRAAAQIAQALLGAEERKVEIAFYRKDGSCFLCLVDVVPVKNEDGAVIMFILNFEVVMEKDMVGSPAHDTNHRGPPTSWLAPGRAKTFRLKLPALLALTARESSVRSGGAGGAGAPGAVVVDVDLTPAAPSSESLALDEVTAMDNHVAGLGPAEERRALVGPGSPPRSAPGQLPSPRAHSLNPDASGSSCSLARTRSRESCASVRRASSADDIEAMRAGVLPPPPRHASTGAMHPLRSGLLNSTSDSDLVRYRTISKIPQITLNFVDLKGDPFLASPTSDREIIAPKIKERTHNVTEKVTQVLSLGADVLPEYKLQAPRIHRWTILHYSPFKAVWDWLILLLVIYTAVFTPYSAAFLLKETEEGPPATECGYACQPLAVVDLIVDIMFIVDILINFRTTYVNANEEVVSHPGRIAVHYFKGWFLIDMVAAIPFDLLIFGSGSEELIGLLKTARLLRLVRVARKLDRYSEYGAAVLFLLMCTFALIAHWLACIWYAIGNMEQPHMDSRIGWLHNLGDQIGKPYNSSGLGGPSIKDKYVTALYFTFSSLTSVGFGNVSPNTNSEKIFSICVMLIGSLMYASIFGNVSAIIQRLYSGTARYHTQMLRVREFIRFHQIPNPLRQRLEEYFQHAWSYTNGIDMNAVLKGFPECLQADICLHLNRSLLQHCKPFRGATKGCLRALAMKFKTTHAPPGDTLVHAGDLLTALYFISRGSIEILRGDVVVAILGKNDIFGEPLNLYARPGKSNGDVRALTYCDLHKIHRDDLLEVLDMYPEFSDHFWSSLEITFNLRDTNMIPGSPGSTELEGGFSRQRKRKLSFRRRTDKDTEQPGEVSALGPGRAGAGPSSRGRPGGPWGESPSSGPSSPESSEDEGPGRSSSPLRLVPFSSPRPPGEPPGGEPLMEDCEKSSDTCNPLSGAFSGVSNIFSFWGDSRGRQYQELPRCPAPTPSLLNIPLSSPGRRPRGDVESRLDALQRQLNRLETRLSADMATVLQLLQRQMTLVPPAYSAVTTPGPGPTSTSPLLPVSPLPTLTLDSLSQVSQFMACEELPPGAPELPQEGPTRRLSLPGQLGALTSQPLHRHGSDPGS
# Sequence of Beta-galactosidase (Q8VNN2 whole entry): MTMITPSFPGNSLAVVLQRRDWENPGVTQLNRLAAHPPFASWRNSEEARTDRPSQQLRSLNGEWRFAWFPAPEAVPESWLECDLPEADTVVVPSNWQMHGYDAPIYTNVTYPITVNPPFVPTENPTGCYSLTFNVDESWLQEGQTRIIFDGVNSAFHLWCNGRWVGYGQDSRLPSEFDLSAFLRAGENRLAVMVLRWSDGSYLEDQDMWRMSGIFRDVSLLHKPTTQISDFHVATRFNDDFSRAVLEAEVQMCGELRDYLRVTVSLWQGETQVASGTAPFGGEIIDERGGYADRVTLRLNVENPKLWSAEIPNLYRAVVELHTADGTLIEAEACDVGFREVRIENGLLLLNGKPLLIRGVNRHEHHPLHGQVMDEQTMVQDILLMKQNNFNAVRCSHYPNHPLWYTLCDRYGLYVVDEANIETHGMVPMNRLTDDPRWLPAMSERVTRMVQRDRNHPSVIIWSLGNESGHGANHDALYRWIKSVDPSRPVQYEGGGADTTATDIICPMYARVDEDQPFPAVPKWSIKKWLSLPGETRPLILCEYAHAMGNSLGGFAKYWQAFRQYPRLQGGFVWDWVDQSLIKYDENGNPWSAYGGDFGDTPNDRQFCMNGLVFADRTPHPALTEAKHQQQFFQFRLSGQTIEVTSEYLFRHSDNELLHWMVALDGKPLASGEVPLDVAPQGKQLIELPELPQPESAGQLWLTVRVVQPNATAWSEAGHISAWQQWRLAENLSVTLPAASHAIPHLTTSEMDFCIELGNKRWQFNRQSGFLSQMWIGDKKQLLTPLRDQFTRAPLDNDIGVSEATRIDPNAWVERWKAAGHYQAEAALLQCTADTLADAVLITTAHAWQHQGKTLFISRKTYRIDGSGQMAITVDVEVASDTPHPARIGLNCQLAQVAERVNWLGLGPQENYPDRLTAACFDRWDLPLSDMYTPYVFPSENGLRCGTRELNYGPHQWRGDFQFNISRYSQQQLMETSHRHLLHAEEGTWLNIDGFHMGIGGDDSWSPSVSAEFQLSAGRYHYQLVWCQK
smiles,measurement,setting,value
Nc1ncnc2c1nc(Sc1ccc(Cl)cc1)n2[C@@H]1O[C@@H]2COP(=O)(O)O[C@H]2[C@H]1O,EC50,[1],50.5 nM (active)
same,EC50,[2],32.7 nM (active)
O=c1c2ccccc2sc2ccc(C#CC3(O)CCCCC3)cc12,EC50,[3],118 nM (active)
same,EC50,[4],140 nM (active)
same,AC50,[5],> 70 µM (inactive)
same,AC50,[6],< 260 nM (active)
same,AC50,[7],29.8 µM (active)
same,EC50,[8],< 100 nM (active)
same,EC50,[9],< 100 nM (active)
same,EC50,[10],< 160 nM (active)
same,AC50,[11],555 nM (active)
same,EC50,[12],83 nM (active)
same,EC50,[13],< 100 nM (active)
NC(=O)c1ccccc1NCC(=O)c1ccc(Cl)cc1,AC50,[14],7.76 µM (active)
same,EC50,[15],> 40 µM (inactive)
same,IC50,[16],7.41 µM (active)
Brc1ccccc1C1Nc2cccc3cccc(c23)N1,IC50,[17],2.94 µM (inactive)
same,EC50,[18],> 150 µM (not active)
same,EC50,[19],14.2 µM (active)
same,EC50,[20],9.74 µM (active)
Nc1nc(NCCCN2CCOCC2)nc(Nc2ccc(F)cc2)c1[N+](=O)[O-],AC50,[21],1.25 µM (active)
same,AC50,[22],406 nM (active)
Cc1ccc(-c2cnn3c(N4CCOCC4)cc(C)nc23)cc1,AC50,[23],23.6 µM (active)
same,AC50,[24],> 52 µM (inactive)
same,IC50,[25],> 67.5 µM (inactive)
same,IC50,[26],> 67.5 µM (inactive)
same,AC50,[27],17.4 µM (active)
CC(=O)N1c2ccccc2C(C)(c2ccccc2)CC1(C)C (stereo not given),EC50,[28],9.29 µM (active)
NCCNS(=O)(=O)c1cccc2cnccc12,AC50,[29],12.6 µM (inconclusive)
CCCCCC(=O)Nc1cccc(C2=NOC3(C2)C[C@@H](C(N)=O)N(C(=O)c2ccc(OC)cc2)C3)c1 (stereo not given in full),EC50,[30],4.38 µM (active)
